Columns and labels:
Test in all cases: relative viability (nuclei count vs DMSO), 5 days (fraction); higher = more cells survive
[1] = compound: CC1=NN=C(O1)C2=NN=C(C=C2)N3CCC(CC3)OC4=C(C=CC(=C4)F)Cl + Nc1ncn([C@H]2C[C@H](O)[C@@H](CO)O2)c(=O)n1 [Decitabine] (partner 2 µM)
How it was run: (§1)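 Relative viability is defined as nuclei in treated wells over nuclei in vehicle wells. Duplicate plates were run and medians reported. Lung cancer cell lines in 1536-well plates were dosed by pin tool one day after seeding, with one drug or with a fixed anchor-drug dose plus five library-drug doses (not always all listed) in √10 steps, and nuclei were counted after 5 days.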

[2] = compound: CC1=NN=C(O1)C2=NN=C(C=C2)N3CCC(CC3)OC4=C(C=CC(=C4)F)Cl + CC(=O)c1c(C)c2cnc(Nc3ccc(N4CCNCC4)cn3)nc2n(C2CCCC2)c1=O [Palbociclib] (partner 0.5 µM)
How it was run: as §1

Tosedostat + Crizotinib = compound: CC(C)C[C@@H](C(=O)N[C@H](C(=O)OC1CCCC1)c1ccccc1)[C@H](O)C(=O)NO [Tosedostat] + C[C@@H](Oc1cc(-c2cnn(C3CCNCC3)c2)cnc1N)c1c(Cl)ccc(F)c1Cl [Crizotinib] (partner 1 µM)
How it was run: as §1

Tosedostat + Linsitinib = compound: CC(C)C[C@@H](C(=O)N[C@H](C(=O)OC1CCCC1)c1ccccc1)[C@H](O)C(=O)NO [Tosedostat] + C[C@]1(O)C[C@@H](c2nc(-c3ccc4ccc(-c5ccccc5)nc4c3)c3c(N)nccn32)C1 [Linsitinib] (partner 1 µM)
How it was run: as §1

Row | Cell Line | relative viability ([1]; first compound 0.253 µM) | relative viability ([1]; first compound 0.8 µM) | relative viability ([1]; first compound 2.53 µM) | relative viability ([1]; first compound 8 µM) | relative viability ([2]; first compound 0.253 µM) | relative viability ([2]; first compound 0.8 µM) | relative viability ([2]; first compound 2.53 µM) | relative viability ([2]; first compound 8 µM) | relative viability (Tosedostat + Crizotinib; first compound 0.02 µM) | relative viability (Tosedostat + Crizotinib; first compound 0.06325 µM) | relative viability (Tosedostat + Crizotinib; first compound 0.2 µM) | relative viability (Tosedostat + Crizotinib; first compound 0.6325 µM) | relative viability (Tosedostat + Crizotinib; first compound 2 µM) | relative viability (Tosedostat + Linsitinib; first compound 0.02 µM) | relative viability (Tosedostat + Linsitinib; first compound 0.06325 µM) | relative viability (Tosedostat + Linsitinib; first compound 0.2 µM) | relative viability (Tosedostat + Linsitinib; first compound 0.6325 µM) | relative viability (Tosedostat + Linsitinib; first compound 2 µM)
1 | NCI-H1355 | 0.311 | 0.333 | 0.334 | 0.339 | 0.25 | 0.359 | 0.353 | 0.353 | 0.997 | 1.09 | 1.06 | 0.976 | 0.813 | 0.717 | 0.839 | 0.762 | 0.701 | 0.726
2 | NCI-H1437 | 0.376 | 0.383 | 0.399 | 0.368 | 0.22 | 0.233 | 0.268 | 0.168 | 0.941 | 0.988 | 1.03 | 0.914 | 0.895 | 1.12 | 1.03 | 1 | 0.752 | 0.66
3 | NCI-H1651 | 0.486 | 0.46 | 0.451 | 0.391 | 0.337 | 0.387 | 0.331 | 0.346 | 0.918 | 0.851 | 0.878 | 0.897 | 0.817 | 0.996 | 0.963 | 1.11 | 0.875 | 0.863
4 | NCI-H1666 | 0.561 | 0.674 | 0.69 | 0.534 | 0.632 | 0.684 | 0.651 | 0.627 | 0.972 | 1.01 | 1.01 | 0.937 | 1.11 | 0.864 | 0.815 | 0.805 | 0.818 | 0.989
5 | NCI-H1734 | 0.519 | 0.482 | 0.463 | 0.503 | 0.344 | 0.334 | 0.345 | 0.324 | 0.727 | 0.695 | 0.688 | 0.574 | 0.656 | 0.902 | 0.989 | 0.867 | 0.913 | 0.827
6 | NCI-H1755 | 0.524 | 0.54 | 0.605 | 0.503 | 0.334 | 0.451 | 0.464 | 0.4 | 0.933 | 0.846 | 0.876 | 0.856 | 0.771 | 0.942 | 1.02 | 0.985 | 0.965 | 0.939
7 | NCI-H1792 | 0.396 | 0.507 | 0.558 | 0.442 | 0.358 | 0.502 | 0.449 | 0.474 | 1 | 0.991 | 1.04 | 0.963 | 1.03 | 0.553 | 0.578 | 0.496 | 0.548 | 0.636
8 | NCI-H1915 | 0.255 | 0.223 | 0.242 | 0.217 | 0.385 | 0.291 | 0.319 | 0.266 | 0.922 | 0.894 | 0.901 | 0.905 | 0.79 | 1.16 | 1.11 | 1.11 | 1.1 | 0.961
9 | NCI-H1944 | 0.306 | 0.288 | 0.321 | 0.309 | 0.238 | 0.278 | 0.249 | 0.246 | 1.11 | 1.01 | 1.04 | 1.08 | 0.942 | 1.17 | 1.14 | 1.28 | 1.12 | 1.02

Source: the supplement of paper PMC10307832
